Assay results as given in paper PMC9042912, “T cell receptor and IL-2 signaling strength control memory CD8^+ T cell functional fitness via chromatin remodeling” (Nature Communications, 2022).
No end group written: not given here.

Target: T1, H2-K^b (Mus musculus, UniProt P01901)
T1 construct: RMA-S cells were added per well to a 96-well flat-bottom plate and incubated at 30 °C overnight; endogenous in cells; host or cells: RMA-S cells (TAP-deficient), obtained from Dr. Steve Porcelli
T1 sequence (P01901 22-369): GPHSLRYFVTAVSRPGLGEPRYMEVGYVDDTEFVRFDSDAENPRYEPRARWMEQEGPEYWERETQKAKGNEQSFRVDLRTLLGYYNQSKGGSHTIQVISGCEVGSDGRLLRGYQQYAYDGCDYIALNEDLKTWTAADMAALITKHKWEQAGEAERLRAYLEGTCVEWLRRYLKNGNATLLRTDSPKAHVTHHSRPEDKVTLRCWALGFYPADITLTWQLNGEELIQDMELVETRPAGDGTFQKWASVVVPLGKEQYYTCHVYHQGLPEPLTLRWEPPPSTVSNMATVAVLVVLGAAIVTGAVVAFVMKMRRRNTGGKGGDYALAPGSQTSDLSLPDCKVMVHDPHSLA
T1 sequence (P01887 21-119 partner): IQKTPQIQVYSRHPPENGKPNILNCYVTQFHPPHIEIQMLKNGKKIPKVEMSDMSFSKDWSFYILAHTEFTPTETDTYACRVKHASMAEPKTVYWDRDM
Assay: cell-based

For SIINFEKA [A8], which Kd is on record?
The Kd was 351 nM.
